The record followed here is patent US20240228542A1, “LYTIC DOMAIN FUSION CONSTRUCTS, CHECKPOINT INHIBITORS, AND METHODS OF MAKING AND USING SAME” (A28 Therapeutics Inc., priority 2020, published 2024).

The test system of one assay is PC-3 xenograft. In words: PC-3 prostate cancer xenograft. To be noted: for tumor growth: PC-3 xenograft, CLIP71 5 mg/kg. It is filed as in vivo, Nu/Nu mice. The procedure:
In brief, Nu/Nu male mice, outbred strain, age 6 weeks (Charles River) were injected subcutaneously with a PC-3 cells/Matrigel suspension (1×10^6 cells/mouse). Treatment was started on day 15 after tumor cell injection when the tumors were established and continued on days 22 and 29. The doses for the 3 weekly injections were 2, 0.2 and 0.02 mg/kg body weight, given as a bolus single intravenous injection via lateral tail vein.
A group of 12 tumor bearing mice was sacrificed on day 15 and served as baseline group. All mice were necropsied 35 and 36 days after tumor cell injection. Tumor volumes and bodyweights were recorded twice weekly during the study, as well as overall veterinarian examination of mice was conducted.
Primary tumors, liver, kidney, pancreas, heart, lung, and spleen were collected, fixed in formalin and prepared for histological evaluation. Tumor weights were measured at necropsy, part of the tumors were frozen at −80° C. for LH/CG and LHRH receptor assay determination.

A further assay relates to SKOV-3 cells. In words: Time course of cytotoxicity in SKOV-3 cells (MTT). It is filed as cell-based, human. The text has this:
(§1) Membranes of non-cancerous cell lines are neutral and are resistant to cytolytic peptides, in contrast to cancer cell lines, which have a high phosphatidic acid content in their outer membrane.
(§2) The melanoma cell line studied was MDA-MB-435S (estrogen receptor alpha negative), breast cancer cell lines MCF-7 and T47D (estrogen receptor alpha positive), ovarian cancer cell lines (OVCAR-3 and SKOV-3), prostate cancer (LNCaP), the non-malignant breast epithelial cell line MCF-10A and the mouse fibroblast cell line NIH:3T3.
(§3) Cells were seeded into 96 well plates at a density of 10,000 cells/well. […] Controls contained USP saline or 0.1% TritonX-100™ as reference for 0 and 100% cell death, respectively. Incubations were terminated by removing the culture media after 2 minutes, 5 minutes, 15 minutes, 30 minutes, 1 hour, 2 hours, 6 hours, 24 and 48 hours. Cell viability was assessed through formazan conversion assay (MTT assay, (CellTiter 96 Aqueous One, Promega # G3582). Formazan conversion was determined using a BioRad Benchmark Plus microplate spectrophotometer dual wavelengths at 490/630 nm at room temperature).
(§4) Data were calculated as fraction of absorption in TritonX-100™ containing wells representing 100% cell death versus 0% cell death in saline containing wells. Cytotoxicity was determined as ICso using GraphPad Prism version 5.01 for Windows, GraphPad Software, San Diego California USA according to the program for sigmoidal dose response with variable slope using constraint values of 0 and 100%. 4 wells of each individual set of two 96 well plates were compared and analyzed. Statistical analysis for significance was determined by a two-tailed Student's T-test.

The subject of the next assay is MCF-7 cells. In words: Time course of cytotoxicity in MCF-7 cells (MTT). It is filed as cell-based, human. The note with it: for incubation time to maximal efficacy: MCF-7 cells.
Excerpt: as §1, §2, §3, §4

The subject of the next assay is MDA-MB-435S.luc cells. The class given is cell-based, human. The source says: This example describes screening for cell toxicity (IC50) and hemolytic activity using a human breast cancer cell line.
The human melanoma cell line MDA-MB-435S.luc, which over expresses chorionic gonadotrophin (CG) and luteinizing hormone-releasing hormone (LHRH) receptors, was used to screen at passage numbers 248-252. The MDA-MB-435S.luc cell line was constructed from the MDA-MB-435S cell line obtained from the American Type Cell Culture Collection by stable transfection with the plasmid PRC/CMV-luc containing the Photinus pyralis luciferase gene and an […] resistance gene by lipofection. The stably transfected cell line was selected using G418 and the clones with the highest expression for the luciferase gene were tested for their LH and LHRH receptor expression.
MDA-MB-435S.luc cells were grown in Leibovitz's L 15 medium, 10% fetal bovine serum, 0.01 mg/ml bovine insulin, 100 IU/ml penicillin, 100 microg/ml streptomycin. The cells were cultured in tight closed flasks. The incubations were conducted using 96 well plates at 10,000 cells per well. Cells were typically seeded into 96 well plates and media was replaced after 48 hours of incubation. Each assay was conducted at increasing concentrations of 0, 0.001, 0.01, 0.05, 0.1, 0.5, 1, 2, 5, 10 and 100 micromolar doses of lytic peptide-binding domain conjugate. Each lytic peptide-binding domain conjugate provided in lyophilized form and was freshly dissolved in saline and added to cells. The duration of incubation was typically 24 h, and cell viability assays were conducted using formazan conversion assays (MTT assay). Controls contained saline or 0.1% triton as reference for 0 and 100% cell death, respectively.
Data were processed and analyzed using Graph Pad Prizm 4™ software (Graph Pad Prizm, Inc). Statistical analysis for significance was determined by a two-tailed Student's T-test. Each study was conducted to achieve an N of at least 8.

In assay [1] the test system is MDA-MB-435S.luc xenograft. As to the kind of experiment: MDA-MB-435S.luc xenograft, LHRH fusion constructs. It is filed as in vivo, Nu/Nu mice. The procedure:
For LHRH fusion constructs, the mouse xenograft model for breast cancer was used. In brief. Nu/Nu female mice, outbred strain, age 5 weeks (Charles River) were injected subcutaneously with a MDA-MB-435S.luc/Matrigel suspension (1×10^6 cells). Treatment was started on day 21 after tumor cell injection and continued on day 26 and 29. The doses for weekly fusion construct injections were 2, 0.2 and 0.02 mg/kg body weight, given as a bolus single injection. All mice were necropsied 34 days after tumor cell injection-baseline values for tumor weights were obtained by sacrificing 8 mice at treatment start. Primary tumors, liver, kidney, pancreas, heart, lung, and spleen were collected and prepared for histological evaluation in formalin. Tumor weights were recorded at necropsy, part of the tumors were frozen at −80 ° C. for luciferase assay determination.
Characteristics of tumors at necropsy are summarized in FIG. 10; (A) tumor weight, (B) changes of tumor weights compared to baseline, (C) total number of live tumor cells, (D) changes of total live tumor cells compared to baseline, and (E) bodyweights at baseline and necropsy. Viability of tumor cells was determined at the end of the study when tumors were measured for luciferase activity. Treatment efficacy was calculated as difference between measurements at the beginning of treatment compared to the measurement at the end of study (FIG. 10B and 10D).

The mark [2] stands for this setting: MDA-MB-435S.luc cells, 24 h, MTT, read-out: IC50.

Where “and” joins values, the source holds several entries; their conditions need not be identical. Equal entries are not always repeated. Where two headings read alike, the source gives them in different places.

For “KFAKFAKKFAKFAKKFAK [Phor18, reference compound]”, the tumor growth result in the assay on PC-3 xenograft is “tumor growth was observed”. Further, the IC50 in the assay with SKOV-3 cells (SKOV-3 (SKOV-3 and HEK 1A), 24 hours, read-out: IC50) was 11.8 µM; with SKOV-3 cells (SKOV-3 (p40), listed as CLIP71, read-out: IC50 with increasing incubation time) it was 86 µM and 96 µM and 53 µM and 50 µM; with MDA-MB-435S.luc cells (setting [2]) it was 2.06 ± 0.5 µM. Also, the “incubation time to maximal efficacy” value in the assay with MCF-7 cells worked out at 24 h.

With “KFAKFAKKFAKFAKKFAKQHWSYGLRPG [Phor18-LHRH]”, the “lowest concentration with tumor volume reduction compared to saline controls and CLIP71” value in the assay with PC-3 xenograft (22 days after tumor cell injection, p<0.001) is 0.002 mg/kg bodyweight. For the same sequence, the “Median Tumor Weight vs Baseline p < 0.05 (doses)” value in the assay with PC-3 xenograft (PC-3, 1 × 3 wk, 21 d) turned out to be 0.2. Besides, the tumor growth entry with PC-3 xenograft was “effective in arresting tumor growth”. The “incubation time to maximal efficacy” value with SKOV-3 cells (SKOV-3 cells) is 24 h; in the assay with MCF-7 cells it was 1 h and 0.5 to 1 h. Moreover, the “treatment efficacy (tumor weight, live tumor cells)” value in assay [1] (0.02, 0.2 and 2 mg/kg, vs baseline, saline and Phor21-βCG-ala) is recorded as “Equally effective as Phor21-βCG-ala”. Also, the tumor volume result in assay [1] (during treatment and after 30 days) is “smallest tumor volumes”. For the same sequence, the “concentrations resulting in tumor weights similar to baseline” value in assay [1] (mouse, in vivo) is on record as 0.2 mg/kg. Besides, the “In vivo Performance compared to 33” value in assay [1] (tumor weight and live tumor cell reduction vs baseline compared to peptide 33, LHRH construct study) worked out at 1. Moreover, the IC50 in the assay with MCF-7 cells (MCF-7 (p152), read-out: IC50 with increasing incubation time) was 1.8 to 3.4 µM; with MDA-MB-435S.luc cells (setting [2]) it was 0.87 ± 0.11 µM; in the assay with MDA-MB-435S.luc cells (MDA-MB-435S.luc cells, places that print μm (Table 2: lytic peptide row + hinge column + ligand section), read-out: IC50), 0.87 µM; with MDA-MB-435S.luc cells (MDA-MB-435S.luc melanoma cell line, read-out: IC50 in Human Cancer Cell Lines) it was 0.86 ± 0.16 µM. In addition, the “Increased in vitro activity fold” value in the assay with MDA-MB-435S.luc cells (IC50 of 33 (Phor21-βCG-ala, 2.31 μM)/IC50 peptide, MDA-MB-435S.luc) was found to be 2.65 fold.
